In general, melting point refers to the temperature of the solid-liquid transition.

With `CCCc1nc2c(N)nc(C)c(C)c2n1CCCCN(O)C(=O)c1ccccc1` [Example 25, N-Hydroxy-N-[4-(4-amino-6,7-dimethyl-2-propyl-1H-imidazo[4,5-c]pyridin-1-yl)-butyl]benzamide], the melting point is 132 to 134 °C.

As to `CCCc1nc2c(N)nc(C)c(C)c2n1CCCCN(OC)C(=O)OC(C)(C)C` [Example 26, N-[4-(4-Amino-6,7-dimethyl-2-propyl-1H-imidazo[4,5-c]pyridin-1-yl)butyl]-N-[tert-butyl-carbamate]-O-methylhydroxylamine], the melting point is 127 to 128 °C.

Compound `CCCc1nc2c(N)nc(C)c(C)c2n1CCCCN(OC)C(=O)c1ccccc1` [Example 27, N-Methoxy-N-[4-(4-amino-6,7-dimethyl-2-propyl-1H-imidazo[4,5-c]pyridin-1-yl)-butyl]benzamide] had a melting point of 136 to 137 °C.

Regarding `CCCCc1nc2c(N)nc3ccccc3c2n1CCCC(=NO)c1ccccc1` [Example 28, 4-(4-Amino-2-butyl-1H-imidazo[4,5-c]quinolin-1-yl)-1-phenylbutan-1-one oxime], the melting point is 242 to 244 °C.

On to `CCCCc1nc2c(N)nc3ccccc3c2n1CCCC(=NOC)c1ccccc1` [Example 29, 4-(4-Amino-2-butyl-1H-imidazo[4,5-c]quinolin-1-yl)-1-phenylbutan-1-one O-methyloximie], for which the melting point is 198 to 200 °C.

Compound `CC(CCCn1c(C)nc2c(N)nc3ccccc3c21)=NO` [Example 30, 5-(4-Amino-2-methyl-1H-imidazo[4,5-c]quinolin-1-yl)pentan-2-one oxime] registered a melting point of 264 to 266 °C.

Regarding `CC(CCCn1c(C)nc2c(N)nc3ccccc3c21)=NOCc1ccccc1` [Example 31, 5-(4-Amino-2-methyl-1H-imidazo[4,5-c]quinolin-1-yl)pentan-2-one O-benzyloxime], the melting point lay within 146 to 148 °C.

Compound `CON=C(C)CCCn1c(C)nc2c(N)nc3ccccc3c21` [Example 32, 5-(4-Amino-2-methyl-1H-imidazo[4,5-c]quinolin-1-yl)pentan-2-one O-methyloxime] yielded a melting point of 158 to 161 °C.

The compound `CCCCc1nc2c(N)nc3ccccc3c2n1CCCC(C)=NOC` [Example 33, 5-(4-Amino-2-butyl-1H-imidazo[4,5-c]quinolin-1-yl)pentan-2-one O-methyloxime] registered a melting point of 157 to 159 °C.

`CCOCc1nc2c(N)nc3ccccc3c2n1CCCC(C)=NO` [Example 34, 5-(4-Amino-2-ethoxymethyl-1H-imidazo[4,5-c]quinolin-1-yl)pentan-2-one oxime] registered a melting point of 220 to 223 °C.

In the case of `CCCc1nc2c(N)nc3ccccc3c2n1CCCC(CC(C)C)=NO` [Example 37, 1-(4-Amino-2-propyl-1H-imidazo[4,5-c]quinolin-1-yl)-6-methylheptan-4-one oxime], the melting point was 207 to 209 °C.

In the case of `CCCCCCC(CCCn1c(CCC)nc2c(N)nc3ccccc3c21)=NO` [Example 38, 1-(4-Amino-2-propyl-1H-imidazo[4,5-c]quinolin-1-yl)decan-4-one oxime], the melting point lay in the range of 113 to 115 °C.

With `CON=C(C)CC(C)(C)Cn1c(C)nc2c(N)nc3ccccc3c21` [Example 39, 5-(4-Amino-2-methyl-1H-imidazo[4,5-c]quinolin-1-yl)-4,4-dimethylpentan-2-one O-methyl-oxime], the melting point is 193 to 195 °C.

Take `CCCc1nc2c(N)nc3ccccc3c2n1CC(C)(C)CC(C)=NOC` [Example 40, 5-(4-Amino-2-propyl-1H-imidazo[4,5-c]quinolin-1-yl)-4,4-dimethylpentan-2-one O-methyloxime]: the melting point was 196 to 198 °C.

Take `CON=C(C)CC(C)(C)Cn1cnc2c(N)nc3ccccc3c21` [Example 41, 5-(4-Amino-1H-imidazo[4,5-c]quinolin-1-yl)-4,4-dimethylpentan-2-one O-methyloxime]: the melting point is 148 to 150 °C.

`CCCCc1nc2c(N)nc3ccccc3c2n1CCC/C=N/OC` [Example 42, (1E,Z)-4-(4-amino-2-butyl-1H-imidazo[4,5-c]quinolin-1-yl)butanal O-methyloxime] returned a melting point of 153 to 155 °C.

Regarding `CCCc1nc2c(N)nc3ccccc3c2n1CCCCN(O)C(C)=O` [Example 43, N-[4-(4-Amino-2-propyl-1H-imidazo[4,5-c]quinolin-1-yl)butyl]-N-hydroxyacetamide], the melting point fell in the range of 191 to 193 °C.

`CCCc1nc2c(N)nc3ccccc3c2n1CCCCN(O)C(=O)NC(C)C` [Example 44, N-[4-(4-Amino-2-propyl-1H-imidazo[4,5-c]quinolin-1-yl)butyl]-N-hydroxy-N′-isopropylurea] yielded a melting point of 158 to 160 °C.

With `CO/N=C/CCCn1c(C)nc2c(N)nc3ccccc3c21` [Example 45, 4-(4-Amino-2-methyl-1H-imidazo[4,5-c]quinolin-1-yl)butanal O-methyloxime], the melting point fell in the range of 153 to 155 °C.

For `CON(CCCCn1c(C)nc2c(N)nc3ccccc3c21)C(N)=O` [Example 46, N-[4-(4-Amino-2-methyl-1H-imidazo[4,5-c]quinolin-1-yl)butyl]-N-methoxyurea], the melting point fell in the range of 158 to 160 °C.

`CON(CCCCn1c(C)nc2c(N)nc3ccccc3c21)S(C)(=O)=O` [Example 47, N-[4-(4-Amino-2-methyl-1H-imidazo[4,5-c]quinolin-1-yl)butyl]-N-methoxymethanesulfonamide]: the melting point lay in the range of 201 to 203 °C.

Turning to `CCOCc1nc2c(N)nc3ccccc3c2n1C/C(CC)=N/OC` [Example 48, 1-[4-Amino-2-(ethoxymethyl)-1H-imidazo[4,5-c]quinolin-1-yl]butan-2-one O-methyloxime], the melting point was 175 to 178 °C.

`CCCc1nc2c(N)nc3c(c2n1CCCCN(O)C(=O)NC(C)C)CCCC3` [Example 50, N-[4-(4-Amino-2-propyl-6,7,8,9-tetrahydro-1H-imidazo[4,5-c]quinolin-1-yl)butyl]-N-hydroxy-N′-isopropylurea]: the melting point lay in the range of 178 to 180 °C.

Turning to `CCc1nc2c(N)nc3ccccc3c2n1CCCNOC` [Example 51, N-[3-(4-Amino-2-ethyl-1H-imidazo[4,5-c]quinolin-1-yl)propyl]-O-methylhydroxylamine], the melting point fell in the range of 210 to 213 °C.

For the origin of these results see patent US8778963B2, “Hydroxylamine and oxime substituted imidazoquinolines, imidazopyridines, and imidazonaphthyridines” (3M Innovative Properties Company, priority 2003, dated 2014).
